Experimental data as given in patent publication US10836792B2, “Retro-inverso peptide inhibitors of cell migration, extracellular matrix and endothelial invasion by tumor cells” (ISTITUTO NAZIONALE TUMORI IRCCS “FONDAZIONE G. PASCALE”, priority 2016, dated 2020).
Non-standard residues stand in square brackets, D forms with d. Residues, ends and D or L forms follow the SMILES beside them. Aib = CC(C)(N)C(=O)O

Legend:
[1] = system: HT1080 cells; experiment: Proliferation of HT1080 cells (xCELLigence); format: cell-based, human; conditions: 10 μM, 2-26 time range
Procedure: Cell proliferation of HT1080 cells was monitored for 75 hrs using the xCELLigence technology. Cells (1×10^3 cells/well) were seeded on E-plates in growth medium (None) or growth medium plus 10 μM RI-3 and allowed to proliferate at 37° C., 5% CO2. Medium was replaced every 24 hrs (arrows). Impedance value of each well was automatically monitored and expressed as cell index. Data represent mean±SD from a quadruplicate experiment representative of 2 replicates (A). […] In the 2-26 time range the doubling times of cells exposed to diluents or to RI-3 were 16.3828+/−0.22 hrs and 17.7648+/−0.27 hrs, respectively (B).

[2] = system: metastatic melanoma A375M6; experiment: Matrigel invasion (xCELLigence RTCA), A375M6; format: cell-based, human; conditions: 10 nM, 20 hrs
Procedure: (§1) FIG. 8 At the concentration of 10 nM the retro-inverso peptide RI-3 prevents matrigel invasion of tumor cells from human osteosarcoma Saos-2 (A), chondrosarcoma Sarc (B), melanoma A375 (C), metastatic melanoma A375M6 (D), ovarian carcinoma SKOV-3 cells (E), or primary ovarian cancer cells derived from a tumor excision (OV-53) (F), as monitored in real-time for 20 hr as changes in cell index by the xCELLigence RTCA system (Example 8).
(§2) To investigate the ability of RI-3 to prevents matrigel invasion of tumor cells form different tissue origins, human osteosarcoma Saos-2 (A), chondrosarcoma Sarc (B) melanoma A375 (C), metastatic melanoma A375M6 (D), ovarian carcinoma SKOV-3 cells (E) or primary ovarian cancer cells derived from a tumor excision (OV-53) (F) were seeded on polymerized matrigel and allowed to invade matrigel in the absence (None) or in the presence of 10 nM RI-3. Cell invasion was monitored in real-time for 20 hrs as changes in cell index by the xCELLigence RTCA system. Data represent mean±SD from quadruplicate experiments. All cell lines were able to cross matrigel, although to a different extent. In all case RI-3 reduced matrigel invasion by about 30%, 31%, 64%, 57%, 53% and 68%, of Saos-2, Sarc, A375, A375M6, SKOV-3 and OV-53 cells, respectively.

[3] = system: primary ovarian cancer cells derived from a tumor excision (OV-53); experiment: Matrigel invasion (xCELLigence RTCA), OV-53; format: cell-based, human; conditions: 10 nM, 20 hrs
Procedure: as §1, §2

[4] = system: ovarian carcinoma SKOV-3 cells; experiment: Matrigel invasion (xCELLigence RTCA), SKOV-3; format: cell-based, human; conditions: 10 nM, 20 hrs
Procedure: as §1, §2

[5] = system: melanoma A375; experiment: Matrigel invasion (xCELLigence RTCA), A375; format: cell-based, human; conditions: 10 nM, 20 hrs
Procedure: as §1, §2

[6] = Stability in bovine serum, read out by HT1080 migration (xCELLigence); format: in vitro ADME; conditions: 10^−3 mol/L in serum 18 hrs at 37° C., then tested at 10 nM
Procedure: FIG. 7 The retro-inverso peptide RI-3 is stable when pre-incubated in bovine (A) or human serum (B) as assessed in real time using the xCELLigence technology (A) or in Boyden chambers (B) (Example 7).
The stability of the retro-inverso peptide RI-3 in bovine and human serum was investigated through incubation of the peptide at a 10^−3 mol/L in serum for 18 hrs at 37° C. HT1080 cells were allowed to migrate toward DMEM (CTRL), 10% FBS (None), 10% FBS plus 10 nM RI-3 or 10% FBS with 10 nM RI-3 pre-incubated with bovine serum and the impedance values were automatically monitored in real time by the xCELLigence system for 18 hrs and expressed as cell index. Data represent the means from a quadruplicate experiment representative of 2 replicates. […] The stability of RI-3 in human serum was further investigated in cell invasion experiments performed in Boyden chambers. HT1080 cells were allowed to invade matrigel for 6 hrs, toward DMEM (CTRL), 10% FBS (None), 10% FBS plus 10 nM RI-3 or 10% FBS with 10 nM RI-3 pre-incubated with human serum. For quantitative analysis of cell invasion, the basal value assessed in the absence of FBS (CTRL) was taken as 100% and all values were reported relative to that. Data are the means±SD from a triplicate experiment. *Statistical significance was calculated against None with p<0.005. […]

[7] = target: T1, FPR1 (Homo sapiens, UniProt P21462); experiment: Agonist-dependent FPR1 internalization in RBL-2H3/ETFR cells (microscopy); format: cell-based; conditions: binding experiments at 37° C., FITC-fMLF
T1 construct: expressed in transfected cells; host or cells: rat basophilic leukaemia RBL-2H3/ETFR cells
T1 sequence (P21462 1-350): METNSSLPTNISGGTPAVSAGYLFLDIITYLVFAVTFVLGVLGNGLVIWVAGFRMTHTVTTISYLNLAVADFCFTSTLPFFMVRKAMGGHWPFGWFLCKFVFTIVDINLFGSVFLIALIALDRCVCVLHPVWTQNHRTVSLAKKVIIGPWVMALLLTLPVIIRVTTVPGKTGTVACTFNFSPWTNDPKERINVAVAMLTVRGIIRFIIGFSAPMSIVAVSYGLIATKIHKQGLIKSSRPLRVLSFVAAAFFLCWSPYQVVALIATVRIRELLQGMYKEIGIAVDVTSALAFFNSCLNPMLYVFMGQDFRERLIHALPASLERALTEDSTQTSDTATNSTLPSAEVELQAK
Procedure: Cell-associated fluorescence was measured using a fluorescence plate reader. The results are depicted in FIG. 3. […] To evaluate the effect of RI-3 on agonist-dependent FPR1 internalization, binding experiments were performed at 37° C. and cells were visualized using a Zeiss 510 Meta LSM microscope. Original magnifications: 630×. Scale bar: 10 μm.

[8] = system: ovarian carcinoma SKOV-3; experiment: Trans-endothelial migration through HUVEC monolayer (xCELLigence RTCA), SKOV-3; format: cell-based, human; conditions: 10 nM, 5 hrs
Procedure: FIG. 9 At the concentration of 10 nM the retro-inverso peptide RI-3 affects trans-endothelial migration of human chondrosarcoma Sarc (A), melanoma A375 (B), ovarian carcinoma SKOV-3 (C) cells, or THP1 monocytes (D), as monitored by the xCELLigence RTCA system (Example 9).
The entry of tumor cells into bloodstream is one of the earliest events of the metastatic process. The ability of RI-3 to affect trans-endothelial migration of human chondrosarcoma Sarc (A) melanoma A375 (B), ovarian carcinoma SKOV-3 (C) cells, or THP1 monocytes (D) was monitored by the xCELLigence RTCA system. Human Umbilical Vein Endothelial Cells (HUVEC) (1×10^4 cells/well) suspended in growth medium, were allowed to grow for 20-25 hrs until they form a confluent monolayer, prior to seeding Sarc, A375, SKOV-3, or THP-1 cells (1×10^4 cells/well) in growth medium in the absence (None) or in the presence of 10 nM RI-3. The experiments were performed twice in quadruplicate. When cells cross the endothelial monolayer, there is a drop in electrical resistance which is monitored in real-time for 5 hrs as the cell index changes due to the rupture of endothelial monolayer. All cell lines were able to reduce endothelial monolayer integrity. The addition of 10 nM RI-3 inhibited the capability of Sarc, A375, SKOV-3, and THP-1 cells to disrupt endothelial monolayers by 17%, 22%, 58%, and 36% respectively.

SMILES: CC(=O)N[C@H](Cc1ccc(O)cc1)C(=O)N[C@H](CCCNC(=N)N)C(=O)NC(C)(C)C(=O)N[C@H](CCCNC(=N)N)C(N)=O [RI-3, Ac-(D)-Tyr-(D)-Arg-Aib-(D)-Arg-NH2] (Ac-[dY][dR][Aib][dR]-NH2)
- doubling time during exponential growth [1]: 17.7648 ± 0.27 h
- reduction of matrigel invasion [2]: ~57%
- reduction of matrigel invasion [3]: ~68%
- reduction of matrigel invasion [4]: ~53%
- reduction of matrigel invasion [5]: ~64%
- stability after pre-incubation in bovine serum [6]: stable to enzymatic digestion
- agonist-dependent FPR1 internalization [7]: prevented agonist-dependent FPR1 internalization
- inhibition of the capability to disrupt endothelial monolayers [8]: 58%
